Patent US8404685B2, “Dihydropyrazole derivatives as tyrosine kinase modulators for the treatment of tumors” (Merck Patent Gesellschaft Mit Beschrankter Haftung, priority 2008, dated 2013)

Key:
[1] = biological target: T1, Met kinase (Homo sapiens, UniProt P08581); experiment: Met kinase inhibition, flashplate method (enzyme); type: biochemical; design: 6His (N); purchased Upstate 14-526; host or cells: Sf21 insect cells (S. frugiperda), baculovirus
Text: According to the manufacturer's data (Met, active, Upstate, catalogue No. 14-526), Met kinase is expressed for the purposes of protein production in insect cells (Sf21; S. frugiperda) and subsequent affinity-chromatographic purification as “N-terminal 6His-tagged” recombinant human protein in a baculovirus expression vector.
The test plates used are 96-well Flashplate® microtitre plates from Perkin Elmer (Cat. No. SMP200). The components of the kinase reaction described below are pipetted into the assay plate. The Met kinase and the substrate poly Ala-Glu-Lys-Tyr, (pAGLT, 6:2:5:1), are incubated for 3 hrs at room temperature with radioactively labelled ^33P-ATP in the presence and absence of test substances in a total volume of 100 μl. The reaction is terminated using 150 μl of a 60 mM EDTA solution. After incubation for a further 30 min at room temperature, the supernatants are filtered off with suction, and the wells are washed three times with 200 μl of 0.9% NaCl solution each time. The measurement of the bound radioactivity is carried out by means of a scintillation measuring instrument (Topcount NXT, Perkin-Elmer).
The full value used is the inhibitor-free kinase reaction. This should be approximately in the range 6000-9000 cpm. The pharmacological zero value used is staurosporin in a final concentration of 0.1 mM. The inhibitory values (IC50) are determined using the RS1_MTS program.
Kinase reaction conditions per well:
10 μl of substance to be tested in assay buffer with 10% of DMSO
10 μl of ATP (final concentration 1 μM cold, 0.35 μCi of ^33P-ATP)
50 μl of Met kinase/substrate mixture in assay buffer;
• (10 ng of enzyme/well, 50 ng of pAGLT/well) • Solutions used: • Assay buffer: • 50 mM HEPES • 3 mM magnesium chloride • 3 μM sodium orthovanadate • 3 mM manganese(II) chloride • 1 mM dithiothreitol (DTT) • pH=7.5 (to be set using sodium hydroxide) • Stop solution: • 60 mM Titriplex III (EDTA) • ^33P-ATP: Perkin-Elmer; • Met kinase: Upstate, Cat. No. 14-526, Stock 1 μg/10 μl; spec. activity 954 U/mg; • Poly-Ala-Glu-Lys-Tyr, 6:2:5:1: Sigma Cat. No. P1152 In-Vivo Tests

[2] = biological target: T1, Met kinase; experiment: Met kinase inhibition (cell); type: cell-based

T1 sequence (P08581 25-1390): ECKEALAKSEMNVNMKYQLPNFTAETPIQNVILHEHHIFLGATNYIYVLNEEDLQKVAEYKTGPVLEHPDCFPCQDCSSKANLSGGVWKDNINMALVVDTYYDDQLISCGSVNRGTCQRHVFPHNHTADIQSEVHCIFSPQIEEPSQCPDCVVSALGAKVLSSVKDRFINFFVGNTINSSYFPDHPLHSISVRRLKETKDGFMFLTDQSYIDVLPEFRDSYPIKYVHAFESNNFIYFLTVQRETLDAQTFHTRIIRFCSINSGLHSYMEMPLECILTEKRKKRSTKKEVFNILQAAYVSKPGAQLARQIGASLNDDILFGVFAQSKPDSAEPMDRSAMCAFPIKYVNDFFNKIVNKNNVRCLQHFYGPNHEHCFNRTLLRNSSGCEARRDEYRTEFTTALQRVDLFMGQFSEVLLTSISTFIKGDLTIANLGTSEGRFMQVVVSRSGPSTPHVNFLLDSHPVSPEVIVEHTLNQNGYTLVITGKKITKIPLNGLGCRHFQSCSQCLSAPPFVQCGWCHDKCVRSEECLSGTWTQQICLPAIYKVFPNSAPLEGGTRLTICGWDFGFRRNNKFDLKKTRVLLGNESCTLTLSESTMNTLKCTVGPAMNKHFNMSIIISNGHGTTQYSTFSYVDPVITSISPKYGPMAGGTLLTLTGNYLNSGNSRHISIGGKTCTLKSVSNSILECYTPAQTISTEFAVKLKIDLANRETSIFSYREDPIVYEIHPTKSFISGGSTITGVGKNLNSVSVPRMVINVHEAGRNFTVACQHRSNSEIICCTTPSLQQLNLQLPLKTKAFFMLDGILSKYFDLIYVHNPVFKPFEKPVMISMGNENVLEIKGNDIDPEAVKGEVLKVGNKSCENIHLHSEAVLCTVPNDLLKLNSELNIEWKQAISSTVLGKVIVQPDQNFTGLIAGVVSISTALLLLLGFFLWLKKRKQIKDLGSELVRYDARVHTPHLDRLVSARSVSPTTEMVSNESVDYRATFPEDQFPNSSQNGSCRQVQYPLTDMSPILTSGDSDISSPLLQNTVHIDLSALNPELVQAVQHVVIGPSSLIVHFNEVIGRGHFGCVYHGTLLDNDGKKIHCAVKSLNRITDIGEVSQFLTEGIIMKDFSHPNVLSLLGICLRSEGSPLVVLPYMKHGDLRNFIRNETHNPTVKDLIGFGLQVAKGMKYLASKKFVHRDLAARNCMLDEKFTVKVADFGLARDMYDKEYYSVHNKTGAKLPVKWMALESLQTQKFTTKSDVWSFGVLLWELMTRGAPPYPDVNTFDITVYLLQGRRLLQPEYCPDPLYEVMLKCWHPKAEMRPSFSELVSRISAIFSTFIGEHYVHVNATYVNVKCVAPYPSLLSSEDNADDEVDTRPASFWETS

Row | IC50 [1] | IC50 [2] | SMILES
1 | 1 to 100 nM | 1 to 100 nM | O=C(Cc1cccc(-c2ncc(-c3cnn(CCN4CCCC4)c3)cn2)c1)N1CCC(c2cc(Cl)ccc2Cl)=N1 [Compound A1, 1-[3-(2,5-dichlorophenyl)-4,5-dihydropyrazol-1-yl]-2-(3-{5-[1-(2-pyrrolidin-1-ylethyl)-1H-pyrazol-4-yl]pyrimidin-2-yl}phenyl)ethanone]
2 | 1 to 100 nM | 1 to 100 nM | N#Cc1cccc(C2=NN(C(=O)Cc3cccc(-c4ncc(Br)cn4)c3)CC2)c1 [Compound A7, 3-(1-{2-[3-(5-bromopyrimidin-2-yl)phenyl]acetyl}-4,5-dihydro-1H-pyrazol-3-yl)benzonitrile]
3 | 1 to 100 nM | 1 to 100 nM | O=C(Cc1cccc(-c2ncc(OCCN3CCOCC3)cn2)c1)N1CCC(c2cc(Cl)ccc2Cl)=N1 [Compound A8, 1-[3-(2,5-dichlorophenyl)-4,5-dihydropyrazol-1-yl]-2-{3-[5-(2-morpholin-4-ylethoxy)pyrimidin-2-yl]phenyl}ethanone]
